Columns and labels:
Format in all cases: cell-based
ΔF508-CFTR [1] = molecular target: T1, ΔF508-CFTR (Homo sapiens, UniProt P13569, DEL508-508); experiment: three stage ELISA of CFTR surface expression, BHK cells expressing ΔF508-CFTR; parameters: which was then ligated into full length pNUT-CFTR linearized using Hpa1 and Pml1; expressed in transfected cells; settings: 10% glycerol or 1 mM sodium 4-phenylbutyrate, 24 hours
Procedure: (§1) Cells were screened for CFTR surface expression using a three stage ELISA system (Pierce Inc., USA). Briefly, BHK cells expressing 3HA-tagged ΔF508-CFTR were seeded in 96-well plates (Corning, USA) at 30,000 cells per well and incubated for 24 h at 37° C. Each well was treated with a test compound for 24 h, then cells were fixed in 4% paraformaldehyde solution and washed with PBS containing 0.1% bovine serum albumin and 0.05% tween-20. Cells were blocked for 1 h in solution containing 3% normal horse serum in PBS at room temperature. […] After washing four more times, the cells were exposed to 3,3′,5,5′ tetramethylbenzidine (Pierce Inc., USA) for 15 min, sulphuric acid (2M) was added, and absorbance was measured at 450 nm (Power-Wavex Bio-tek Instruments).
(§2) To determine if cell surface expression of CFTR could be quantified in a high-throughput screen using this assay, cells expressing tagged versions of wt or ΔF508-CFTR were seeded in 96-well plates, treated with 10% glycerol and monitored as light absorbance using an enzyme-linked assay system. As expected, untreated ΔF508-CFTR cells had low absorbance since they expressed little CFTR on their cell surface under control conditions (FIG. 3A).

wt CFTR [2] = molecular target: T2, wt CFTR (Homo sapiens, UniProt P13569); experiment: immunoblot and densitometry of mature band C, BHK cells expressing wt CFTR; settings: 10% glycerol
T2 construct: which was then ligated into full length pNUT-CFTR linearized using Hpa1 and Pml1; expressed in transfected cells
Procedure: (§3) Cell lysates were quantitated by Bradford assay (BioRad) and separated by SDS-PAGE (6% polyacrylamide gels) and analyzed by Western blotting. Western blots were blocked using 5% skimmed milk in PBS, then probed overnight at 4° C. with a primary anti-CFTR antibody at a dilution of 1:1000 monoclonal mouse antibody (clone M3A7, Chemicon). The blots were washed four times in PBS before the addition of the secondary HRP-conjugated anti-mouse antibody, at a dilution of 1:5000 (Amersham) for one hour at room temperature. The blots were washed five times in PBS and probed for chemiluminescence (Pierce). All samples were run with equal protein loading as determined using the Bradford assay (Biorad). Densitometry of the immunoblots was performed using the ImageJ program (National Institutes of Health).

ΔF508-CFTR [3] = molecular target: T1, ΔF508-CFTR; experiment: immunoblot and densitometry of mature band C, BHK cells expressing ΔF508-CFTR; parameters: which was then ligated into full length pNUT-CFTR linearized using Hpa1 and Pml1; expressed in transfected cells; settings: 10% glycerol, ΔF508-CFTR
Procedure: as §3
Total protein was quantified in cell lysates using the Bradford assay (BioRad, Hercules, Calif.), separated using SDS-PAGE (6% polyacrylamide gels), and analyzed by Western blotting as described previously (Robert et al., 2007). Western blots were blocked with 5% skimmed milk in PBS and probed overnight at 4° C. with a monoclonal primary anti-CFTR antibody (clone M3A7, Chemicon, Temecula, Calif.) diluted 1:1000. The blots were washed four times in PBS before adding the secondary HRP-conjugated anti-mouse antibody at a dilution of 1:5000 (Amersham, Piscataway, N.J.) for one hour at room temperature, then washed again five times in PBS and visualized using chemiluminescence (Pierce, Rockford, Ill.). The relative intensity of each CFTR glycoform (band B or band C) was estimated by densitometry using the ImageJ software and reported as a percentage of the total CFTR in the same lane (i.e. B+C).

ΔF508-CFTR [4] = molecular target: T1, ΔF508-CFTR; parameters: which was then ligated into full length pNUT-CFTR linearized using Hpa1 and Pml1; expressed in transfected cells; settings: 10% glycerol, ΔF508-CFTR cells
Outline: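 BHK cells stably expressing 3HA-tagged ΔF508-CFTR (tags in fourth extracellular loop) treated with compound at 20 μM final for 24 h at 37° C. Surface ΔF508-CFTR measured on fixed, non-permeabilised cells by anti-HA/FITC immunofluorescence (488/510 nm), relative to untreated-well background; hits retested in duplicate, intrinsically fluorescent compounds excluded.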

wt CFTR [5] = molecular target: T2, wt CFTR; experiment: three stage ELISA of CFTR surface expression, BHK cells expressing wt CFTR; settings: 10% glycerol, cells expressing wild-type CFTR
Procedure: as §1, §2

T1 sequence (P13569 with tags, fused parts or gaps DEL508-508): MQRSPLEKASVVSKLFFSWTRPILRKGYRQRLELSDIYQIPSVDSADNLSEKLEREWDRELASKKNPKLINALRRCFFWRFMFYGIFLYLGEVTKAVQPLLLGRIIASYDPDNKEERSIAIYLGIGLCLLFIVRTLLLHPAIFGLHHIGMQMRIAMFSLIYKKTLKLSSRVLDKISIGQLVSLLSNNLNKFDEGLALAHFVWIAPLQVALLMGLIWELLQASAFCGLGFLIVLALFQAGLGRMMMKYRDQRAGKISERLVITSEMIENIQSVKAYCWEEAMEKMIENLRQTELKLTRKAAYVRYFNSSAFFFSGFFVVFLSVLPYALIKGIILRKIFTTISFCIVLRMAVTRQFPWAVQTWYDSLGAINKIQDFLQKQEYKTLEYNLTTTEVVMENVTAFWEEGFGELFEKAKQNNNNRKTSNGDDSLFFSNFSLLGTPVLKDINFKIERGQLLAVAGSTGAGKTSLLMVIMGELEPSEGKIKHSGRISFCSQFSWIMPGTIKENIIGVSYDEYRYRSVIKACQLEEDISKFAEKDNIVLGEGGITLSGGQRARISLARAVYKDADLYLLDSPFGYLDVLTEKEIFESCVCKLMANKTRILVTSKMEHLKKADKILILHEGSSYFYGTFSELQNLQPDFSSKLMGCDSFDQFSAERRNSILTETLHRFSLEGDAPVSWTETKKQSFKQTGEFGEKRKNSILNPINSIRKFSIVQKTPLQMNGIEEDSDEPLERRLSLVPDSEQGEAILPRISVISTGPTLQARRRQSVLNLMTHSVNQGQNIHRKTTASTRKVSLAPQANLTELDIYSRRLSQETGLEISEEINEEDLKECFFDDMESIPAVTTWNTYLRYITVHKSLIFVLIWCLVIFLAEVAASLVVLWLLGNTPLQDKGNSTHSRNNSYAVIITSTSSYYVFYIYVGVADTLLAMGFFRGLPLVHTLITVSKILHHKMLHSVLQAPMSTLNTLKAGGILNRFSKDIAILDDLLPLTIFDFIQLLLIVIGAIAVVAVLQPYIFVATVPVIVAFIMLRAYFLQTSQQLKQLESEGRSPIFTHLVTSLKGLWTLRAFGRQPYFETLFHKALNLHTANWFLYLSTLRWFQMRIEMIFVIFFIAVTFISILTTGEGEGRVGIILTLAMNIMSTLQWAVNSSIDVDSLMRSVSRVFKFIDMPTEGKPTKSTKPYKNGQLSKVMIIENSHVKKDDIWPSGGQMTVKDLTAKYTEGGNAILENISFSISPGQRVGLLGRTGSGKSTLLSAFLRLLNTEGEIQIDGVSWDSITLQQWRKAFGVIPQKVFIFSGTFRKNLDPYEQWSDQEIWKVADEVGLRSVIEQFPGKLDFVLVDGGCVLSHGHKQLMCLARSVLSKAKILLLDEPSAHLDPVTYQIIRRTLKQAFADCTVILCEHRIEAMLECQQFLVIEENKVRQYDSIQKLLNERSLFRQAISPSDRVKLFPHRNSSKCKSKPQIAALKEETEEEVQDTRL
T2 sequence (P13569 whole entry): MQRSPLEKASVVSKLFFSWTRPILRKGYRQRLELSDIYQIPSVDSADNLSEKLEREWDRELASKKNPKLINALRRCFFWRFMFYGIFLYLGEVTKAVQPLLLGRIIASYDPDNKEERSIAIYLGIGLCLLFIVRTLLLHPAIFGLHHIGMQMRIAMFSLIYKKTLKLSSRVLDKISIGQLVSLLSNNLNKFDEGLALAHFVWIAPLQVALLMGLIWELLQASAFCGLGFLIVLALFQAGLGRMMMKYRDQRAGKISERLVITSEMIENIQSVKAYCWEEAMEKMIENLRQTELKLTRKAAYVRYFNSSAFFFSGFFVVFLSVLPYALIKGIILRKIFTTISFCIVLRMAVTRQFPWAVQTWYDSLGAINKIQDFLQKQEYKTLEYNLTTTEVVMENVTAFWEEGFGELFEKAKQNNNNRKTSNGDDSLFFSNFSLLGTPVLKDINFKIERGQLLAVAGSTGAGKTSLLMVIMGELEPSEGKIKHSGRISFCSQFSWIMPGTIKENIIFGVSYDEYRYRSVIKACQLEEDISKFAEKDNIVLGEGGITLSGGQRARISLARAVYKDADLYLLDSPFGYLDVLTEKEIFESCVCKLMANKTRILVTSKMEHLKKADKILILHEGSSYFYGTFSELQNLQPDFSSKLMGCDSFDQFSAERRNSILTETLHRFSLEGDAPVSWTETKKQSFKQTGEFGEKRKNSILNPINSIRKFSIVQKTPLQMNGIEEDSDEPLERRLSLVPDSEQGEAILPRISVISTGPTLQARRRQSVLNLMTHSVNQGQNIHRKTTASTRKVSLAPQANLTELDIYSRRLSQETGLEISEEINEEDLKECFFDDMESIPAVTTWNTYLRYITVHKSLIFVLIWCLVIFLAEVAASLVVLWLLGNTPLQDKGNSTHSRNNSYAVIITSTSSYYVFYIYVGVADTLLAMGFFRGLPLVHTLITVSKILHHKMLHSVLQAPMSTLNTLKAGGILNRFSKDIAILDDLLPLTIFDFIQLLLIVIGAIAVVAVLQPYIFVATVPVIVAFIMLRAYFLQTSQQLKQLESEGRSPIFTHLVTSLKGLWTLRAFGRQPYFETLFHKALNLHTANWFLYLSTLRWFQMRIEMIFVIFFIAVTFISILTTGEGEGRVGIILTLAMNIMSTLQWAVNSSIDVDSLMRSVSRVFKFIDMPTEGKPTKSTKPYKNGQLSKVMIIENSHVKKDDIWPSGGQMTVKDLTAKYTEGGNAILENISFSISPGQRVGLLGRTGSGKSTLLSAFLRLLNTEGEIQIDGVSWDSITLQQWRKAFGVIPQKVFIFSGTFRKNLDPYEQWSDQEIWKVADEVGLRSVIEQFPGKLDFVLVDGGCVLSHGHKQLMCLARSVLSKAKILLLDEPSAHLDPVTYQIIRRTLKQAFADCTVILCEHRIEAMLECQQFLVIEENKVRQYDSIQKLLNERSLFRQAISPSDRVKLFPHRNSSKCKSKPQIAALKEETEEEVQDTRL

OCC(O)CO [glycerol]
plasma membrane signal (absorbance), words (ΔF508-CFTR [1]): increased the plasma membrane signal
increase of band C by densitometry (wt CFTR [2]): 1.5 fold
increase of band C by densitometry (ΔF508-CFTR [3]): 37 fold
fluorescence increase in comparison with the untreated cells (ΔF508-CFTR [4]): 2.7 fold
increase of plasma membrane signal (wt CFTR [5]): 2.5 fold
